In US20240209353A1, “NADK2 INHIBITION IN CANCER AND FIBROTIC DISORDERS” (Memorial Sloan-Kettering Cancer Center, priority 2021, published 2024):
“And” between values parts separate entries of the source, which are not always exact repeats. Equal values may be shown once.

Tested on: DLD1-OMP25HA cells
Assay: LC-MS metabolomic profiling, whole cell samples
Type: cell-based, human
Conditions: DLD1-OMP25HA sgCtrl + Piericidin 5 μM 2 hours, rep01-rep03
Method: Rapid immunopurification of mitochondria was performed following the published methodology (4). In brief, cells with control or NADK2 knockout were engineered to express the HA-tagged OMP25 protein (Addgene, 83356); or in the case of FIG. 5E, parental DLD1 cells were engineered to express the HA-tagged OMP25 protein or the Myc-tagged OMP25 protein (Addgene, 83355), 30 million cells were washed and dounce homogenized in KPBS (136 mM KCl and 10 mM KH2PO4, pH 7.25). The homogenate was then cleared by centrifugation and the supernatant was applied to anti-HA beads (Thermo Fisher, 88837) and incubated with rotation for 3.5 min. The resultant beads were washed with KPBS and were eluted for different downstream analyses: Triton X-100 lysis buffer (50 mM Tris-HCl, pH 7.4, 150 mM NaCl, 1 mM EDTA, 1% (vol/vol) Triton X-100, and protease inhibitors) was used to elute mitochondria for Western blot analysis; 80:20 methanol:water containing 1.5 μM ^13C^15N labeled amino acids (Cambridge Isotope Laboratories, MSK-A2-1.2) was used to elute mitochondria for liquid chromatography-mass spectrometry (LC-MS) analysis; 80:20 methanol:water was used to elute mitochondria for NAD(H) and NADP(H) measurements; glutathione lysis buffer (see below) was used to elute mitochondria for GSH measurements.
For negative ionization mode liquid chromatography separation was achieved on an iHILIC-(P) Classic column (100 mm×2.1 mm, 5 μm particle size, HILICON). Mobile phase A was 10 mM ammonium bicarbonate in 10:90 acetonitrile:water with 5 μM medronic acid, pH 9.4 and mobile phase B was 10 mM ammonium bicarbonate in 90:10 acetonitrile:water with 5 μM medronic acid, pH 9.4). The gradient was 0 min, 95% B; 15 min, 50% B; 18 min, 50% B; 19 min, 95% B; 19.10 min, 95% B; 25.5 min, 95% B; 2 mins posttime. Other LC parameters were: flow rate: 200 μL/min; column temperature: 40° C., and injection volume was 2 μL. MS parameters were: gas temp: 300° C.; gas flow: 10 L/min; nebulizer pressure: 40 psig; sheath gas temp: 350° C.; sheath gas flow: 12 L/min; VCap: 3,000 V; fragmentor: 125 V. Data were acquired from m/z 50-1700 with active reference masses correction (m/z: 121.05087 and 922.00980 (positive mode) or m/z: 119.03632 and 980.01638 (negative mode). Peak identification and integration were done based on in-house exact mass and retention time library built from commercial standards. Data analysis and natural isotope abundance correction were performed using MassHunter Profinder software v10.0 (Agilent Technologies).
For metabolomic profiling of the Mito-IP samples, dried extracts were resuspended in 30 μL of 60:40 acetonitrile:water and an additional 7.5 μL of 100% methanol added to prevent phase separation. Samples were vortexed, incubated on ice for 20 min, and clarified by centrifugation at 20,000 g for 20 min at 4° C. LC-MS analysis was using the iHILIC-(P) Classic negative method described with 6545 Q-TOF mass spectrometer (Agilent Technologies). Whole cell extracts were analyzed in parallel and data analysis was performed using MassHunter Profinder v10.0 software (Agilent Technologies). Metabolite identifications reported were based on either (a) exact mass and retention times matched to authentic standards (denoted as RT in Tables 1A-1G) or (b) exact mass and MS2 spectra match using SIRIUS software (denoted as MS2 in Tables 1A-1G) (https://bio.informatik.uni-jena.de/software/sirius/). Metabolites were considered to be mitochondrial if the average peak area measured in anti-HA Mito-IPs from HA-tagged OMP25 cells was at least 1.5-fold more than in anti-HA Mito-IPs from the control cell expressing Myc-tagged OMP25 (scc Tables 1A-1G; FC>1.5 for [OMP25HA sgCtrl MitoIP vs. OMP25Myc MitoIP]).

C/C=C(\C)[C@H](O)[C@H](C)/C=C(C)/C=C/C/C(C)=C/Cc1nc(OC)c(OC)c(O)c1C [piericidin]
2-aminoadipate: 146679 and 129247 and 159230
2-hydroxyglutarate: 3675897 and 3670344 and 3586833
3-methyl-2-oxovalerate: 3696272 and 2980891 and 4249362
4-acetylbutyrate: 10363291 and 8533694 and 12130178
4-hydroxyproline: 522424 and 441928 and 551397
5-methylthioadenosine (MTA): 257749 and 400467 and 367942
5-oxoproline: 16393034 and 14068076 and 17132083
6-phosphogluconate: 65481 and 57701 and 58966
N6-(delta-isopentenyl)-adenine: 293077 and 229998 and 281738
N-acetyl-beta-alanine: 1022765 and 956905 and 1036571
N-acetylalanine: 238161 and 214277 and 230562
N-acetylaspartate (NAA): 12095956 and 11050203 and 12351863
N-acetylglucosamine 6-phosphate: 428986 and 380372 and 454385
N-acetylglutamate: 987898 and 1549149 and 871723
N-acetylglycine: 43846 and 40358 and 41154
N-acetylmethionine: 462515 and 426811 and 428397
N-acetylserine: 5896001 and 5058414 and 6358391
N-acetyltaurine: 1110210 and 1084752 and 1148548
N-acetylthreonine: 1380430 and 1226851 and 1295989
UDP-N-acetylglucosamine: 4639411 and 4238311 and 4998970
UDP-glucuronate: 1027925 and 858275 and 1243921
aconitate: 346582 and 453318 and 406006
adenine: 481304 and 768689 and 708555
adenosine 5′-diphosphate (ADP): 1129524 and 1189412 and 1083190
adenosine 5′-monophosphate (AMP): 646021 and 715531 and 648428
adenosine 5′-triphosphate (ATP): 2352445 and 2990040 and 2388618
alanine: 1663860 and 1344230 and 1765231
alanylhistidine: 22199 and 41823 and 30446
allantoin: 3703951 and 3225148 and 4031072
arginine: 1086834 and 998509 and 1348136
asparagine: 2068551 and 1580346 and 2240202
aspartate: 1717174 and 1947525 and 1819639
beta-glycerophosphoric acid: 850446 and 705915 and 880253
betaine: 161649 and 112014 and 159770
caproate: 114886 and 109032 and 115791
carbamoyl aspartate: 3763133 and 3469742 and 3815379
carnitine: 43283 and 41086 and 45131
citrate: 9028971 and 10970194 and 9594217
creatine: 549841 and 451406 and 565679
creatine phosphate: 394087 and 351223 and 410441
creatinine: 277361 and 240499 and 323168
cytidine 5′-triphosphate (CTP): 81066 and 75474 and 92586
dihydroxyacetone phosphate (DHAP): 1214605 and 1228567 and 1670800
dodecanoate: 303807 and 282352 and 360172
flavin adenine dinucleotide (FAD): 115513 and 108031 and 137050
folate: 99228 and 128177 and 134416
formylpyruvate: 1414077 and 902945 and 1059691
fructose 1,6-biphosphate: 1321982 and 1216851 and 1680580
fructose 6′-phosphate: 57127 and 49316 and 50145
fumarate: 357661 and 412548 and 377283
galactitol: 918739 and 708477 and 1199966
galactonic acid: 2240293 and 1677985 and 2390572
gamma-aminobutyrate (GABA): 3496195 and 3622488 and 3524195
glucosamine: 164826 and 119694 and 178113
glucose 6′-phosphate: 755029 and 621609 and 531377
glutamate: 126622339 and 129663305 and 129294077
glutamine: 58464656 and 69652329 and 62470821
glyceraldehyde 3-phosphate: 3045295 and 3098709 and 4229751
glycerophosphorylcholine (GPC): 210330 and 183098 and 225230
glycine: 146868 and 137614 and 144892
glycylaspartate: 205091 and 201360 and 226481
guanosine 5′-diphosphate (GDP): 69660 and 69853 and 38046
guanosine 5′-diphosphoglucose: 33192 and 34147 and 38993
guanosine 5′-monophosphate (GMP): 44633 and 51573 and 51777
guanosine 5′-triphosphate (GTP): 171526 and 214847 and 133658
histidine: 15027640 and 12343272 and 17476456
hydroxyphenyllactate: 1478092 and 1166698 and 1355443
inosine 5′-monophosphate (IMP): 22897 and 17939 and 22222
isoleucine: 4513788 and 3853543 and 5003963
lactate: 105521436 and 97172905 and 114401680
leucine: 7669096 and 6479727 and 8479119
lysine: 195097 and 149255 and 233140
malate: 12653099 and 10480180 and 12542946
methionine: 1041135 and 894784 and 1078995
methylthioribulose 1-phosphate: 21298086 and 18010540 and 22620900
nicotinamide: 39081 and 33023 and 41574
nicotinamide adenine dinucleotide (NAD+): 7875605 and 8688241 and 9053967
nicotinamide adenine dinucleotide phosphate (NADP+): 15380 and 19291 and 12614
nicotinamide adenine dinucleotide, reduced (NADH): 455322 and 465048 and 452884
oleate: 460639 and 248285 and 328228
palmitate: 20015231 and 20994808 and 24605738
pantothenate: 8937050 and 7961239 and 9124782
pentadecanoic acid: 302982 and 182808 and 229103
phenylacetate: 87967 and 87598 and 109383
phenylacetylglycine: 1781914 and 1641866 and 2033368
phenylalanine: 6841254 and 5972052 and 7346184
phosphocholine: 1734241 and 1590770 and 1746457
phosphoenolpyruvate (PEP): 217348 and 206448 and 247608
proline: 4018244 and 3303744 and 4136919
ribose 5′-phosphate: 30487 and 39389 and 44236
serine: 1972729 and 1697021 and 2115421
serinylaspartate: 80143 and 82279 and 87822
sn-glycero-3-phosphoethanolamine: 3947102 and 4703023 and 3861169
stearate: 10555350 and 11041062 and 14072247
succinate: 468012 and 552589 and 622074
taurine: 79062900 and 54111662 and 81152564
threonate: 4663562 and 3938483 and 4644285
threonine: 13508533 and 12463455 and 14159756
thymidine 5′-diphospho-alpha-D-glucose: 14725 and 13909 and 14870
thymine: 24681 and 21055 and 27340
tryptophan: 747292 and 595893 and 756562
tyrosine: 3847092 and 3576189 and 3918008
uridine 5′-diphosphate (UDP): 175584 and 155688 and 210038
uridine 5′-monophosphate (UMP): 631970 and 347896 and 460624
uridine 5′-triphosphate (UTP): 3135652 and 2793092 and 3584193
valine: 1041408 and 903609 and 1081229
